Tests used:
Mus musculus [1] = assay: In vivo antimalarial activity to reduce parasitaemia in mice (Mus musculus) infected with Plasmodium berghei by 50% of the control; type: functional
Plasmodium falciparum [2] = assay: In vitro antimalarial activity for Plasmodium falciparum; type: functional, organism-based
[3] = Half life of compound was determined; type: ADME
Plasmodium falciparum [4] = assay: Inhibitory concentration against Plasmodium falciparum
Plasmodium falciparum [5] = assay: In vitro antimalarial activity for Plasmodium falciparum; range 3 nM to 10 nM; type: functional, organism-based
Mus musculus [6] = assay: In vivo antimalarial activity to reduce parasitaemia in mice (Mus musculus) infected with Plasmodium berghei by 50% of the control; range 1 mg/kg to 3 mg/kg; type: functional
Plasmodium falciparum [7] = assay: Inhibitory concentration against Plasmodium falciparum; remark: listed apart in the source

| Structure (SMILES) | ED50 (Mus musculus [1]) | IC50 (Plasmodium falciparum [2]) | other results |
| --- | --- | --- | --- |
| Fc1ccc(C2=C[C@H]3OC4(CCCC4)OO[C@@]3(c3ccc(F)cc3)C2)cc1 | 2.7 mg/kg | 4 nM |  |
| CO[C@H]1O[C@@H](c2ccc(C(=O)O)cc2)C2CC[C@H]3CCCCC31OO2 (stereo partly specified) | 10 mg/kg | 30 nM |  |
| CO[C@H]1O[C@@]2(c3ccc(F)cc3)CCC[C@H]3CCCC[C@]31OO2 | 10 mg/kg | 30 nM |  |
| C[C@H]1[C@H](OCc2ccc(C(=O)[O-])cc2)O[C@@H]2O[C@]3(C)CCC[C@H]4[C@H](C)CC[C@@H]1[C@@]24OO3.[Na+] |  |  | half-life [3]: 180 min |
| C1CCCCCC2(CCCCC1)OOCCCOO2 | 20 mg/kg | 25 nM | IC50 (Plasmodium falciparum [4]): 3 nM |
| OC1CCC2(CC1)OOC1(O2)C2CC3CC(C2)CC1C3 (stereo unspecified) |  |  | IC50 (Plasmodium falciparum [5]): 10 nM; ED50 (Mus musculus [6]): 3 mg/kg |
| CC1(OCc2ccccc2)CCC2C[C@@H]1OO[C@]2(C)CS(=O)(=O)c1ccccc1 (stereo partly specified) | 0.43 mg/kg | 9.4 nM |  |
| Clc1ccc2c(NCCNC3CCC4(CC3)OOC3(O4)C4CC5CC(C4)CC3C5)ccnc2c1 (stereo unspecified) |  | 2.5 nM |  |
| C[C@@H]1CC[C@H]2[C@@H](C)C(=O)O[C@@H]3O[C@@]4(C)CC[C@@H]1[C@]32OO4 [ARTEMISININ] |  |  | IC50 (Plasmodium falciparum [7]): 10 nM |

— ChEMBL document CHEMBL1148317, “A medicinal chemistry perspective on artemisinin and related endoperoxides” (J Med Chem, 2004)
